From ChEMBL document CHEMBL1201862, “PubChem BioAssay data set” (2004) come the findings set out here.

Each structure is given as a SMILES string.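 Cells were grown in 96-well plates and exposed to each compound for 48 hours at five concentrations; endpoints were interpolated linearly between bracketing concentrations, or set to the highest concentration if not reached. Abbreviation: GI50, concentration required for 50% inhibition of growth.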 Activity calls are given as the source filed them. No stated cut-off is given here; in the data, active = GI50 up to about 1.1 µM and inactive = higher.

Among the test systems are UO-31; MDA-N; A549; T47D; SK-MEL-28; EKVX; OVCAR-3; M14; SF-539; DU-145; MDA-MB-435; Malme-3M; TK-10; MOLT-4; SF-268; SN12C; BT-549.
Common to all, as to assay: inhibition of tumour cell growth, NCI panel, 48 h

`CCOC(=O)c1csc(NC(=O)C(C)N2CCCCC2)n1` (stereo unspecified): the GI50 in the assay with UO-31, in the assay on MDA-N, in the assay with A549, with T47D, with SK-MEL-28 and with EKVX was > 100 µM (inactive) throughout. Also, the GI50 in the assay with OVCAR-3, in the assay with M14, with SF-539, in the assay with DU-145, in the assay on MDA-MB-435 and with Malme-3M was > 100 µM (inactive) in each case. For the same compound, the GI50 in the assay on TK-10 and in the assay on MOLT-4 was > 100 µM (inactive) each time.

Take `OCCN1c2ccccc2Sc2ccccc21`: the GI50 in the assay with SF-268, with SN12C, in the assay on MDA-N, with A549, in the assay on SK-MEL-28 and in the assay on OVCAR-3 was > 10 µM (inactive) in each case. In addition, the GI50 in the assay with BT-549, in the assay with M14, with SF-539, in the assay on DU-145, with MDA-MB-435 and in the assay with Malme-3M was > 10 µM (inactive) in each case. Also, the GI50 in the assay on TK-10 and with MOLT-4 was > 10 µM (inactive) in each case.

Regarding `O=C(C1C(c2ccccc2)N1C(c1ccccc1)c1ccccc1)C1C(c2ccccc2)N1C(c1ccccc1)c1ccccc1` (stereo unspecified), the GI50 with SF-268 was 24.7 µM (inactive); with UO-31, 21 µM (inactive); in the assay with SN12C, 21.8 µM (inactive); with MDA-N it was 28.9 µM (inactive); in the assay with A549, 39 µM (inactive); with T47D it was 28.4 µM (inactive). Moreover, the GI50 in the assay on SK-MEL-28 was 15.7 µM (inactive); in the assay on EKVX, 48.2 µM (inactive); in the assay on M14 it was 37.2 µM (inactive); in the assay with SF-539 it was 20 µM (inactive); in the assay on MDA-MB-435, 36.4 µM (inactive); in the assay on TK-10, 24.8 µM (inactive). Moreover, in the assay on MOLT-4, the GI50 is 6.9 µM (inactive).

Consider `CN1C(=O)[C@@H]2[C@@H]3c4ccccc4N(S(=O)(=O)C(F)(F)F)[C@@H]3c3[nH]c4ccccc4c3[C@@H]2C1=O`, for which the GI50 in the assay on SF-268 was > 100 µM (inactive); in the assay with UO-31, 14.1 µM (inactive); in the assay on SN12C it was > 100 µM (inactive); in the assay on MDA-N, > 100 µM (inactive); in the assay on A549 it was 11.2 µM (inactive); in the assay on SK-MEL-28 it was > 100 µM (inactive). The GI50 in the assay with EKVX is 5.74 µM (inactive); in the assay on OVCAR-3 it was 22.6 µM (inactive); with BT-549, > 100 µM (inactive); with SF-539, > 100 µM (inactive); in the assay on DU-145 it was 98.2 µM (inactive); in the assay with MDA-MB-435, > 100 µM (inactive). The GI50 with TK-10 is 47.8 µM (inactive); in the assay with MOLT-4, 4.3 µM (inactive).

`CCc1ccc(COC(=O)C2=C(C)NC(C)=C(C(=O)OCc3ccc(CC)cn3)C2C2=COCCO2)nc1`: the GI50 was 27.4 µM (inactive) in the assay on SF-268; 20.2 µM (inactive) in the assay with UO-31; > 10 µM (inactive) in the assay with SN12C; 25.2 µM (inactive) in the assay with A549; 11.3 µM (inactive) with T47D; 18.5 µM (inactive) in the assay on SK-MEL-28. The GI50 in the assay on EKVX is 12.7 µM (inactive); with OVCAR-3, 19.7 µM (inactive); in the assay on BT-549, 14.4 µM (inactive); in the assay with M14 it was 16.9 µM (inactive); in the assay with SF-539, 14.4 µM (inactive); in the assay on DU-145 it was 24.9 µM (inactive). For the same compound, the values for the GI50 in the assay on MDA-MB-435, with TK-10 and in the assay with MOLT-4 were 19.5 µM (inactive), 33.7 µM (inactive) and 12.6 µM (inactive), respectively.

As to `N#Cc1c(-c2ccc([N+](=O)[O-])cc2)c(C#N)c(=O)n(NS(=O)(=O)c2ccccc2)c1O`, the GI50 in the assay with SN12C, in the assay with MDA-N, with A549, in the assay on SK-MEL-28, in the assay with EKVX and with OVCAR-3 was > 100 µM (inactive) each time. Also, the GI50 in the assay on BT-549, in the assay on M14, with SF-539, with MDA-MB-435, with Malme-3M and with TK-10 was > 100 µM (inactive) in each case. The GI50 with MOLT-4 is > 100 µM (inactive).

Regarding `Cc1ccc2c(O)cc(-c3sccc3C)nc2n1`, the GI50 in the assay with SF-268 was 1.86 µM (inactive); with UO-31, 1.52 µM (inactive); with SN12C it was 1.67 µM (inactive); with MDA-N it was 0.106 µM (active); in the assay with A549, 0.612 µM (active); with EKVX, 4.43 µM (inactive). The GI50 in the assay on OVCAR-3 is 0.653 µM (active); in the assay with BT-549, 4.27 µM (inactive); in the assay with M14 it was 0.438 µM (active); with SF-539 it was 0.474 µM (active); with DU-145, 2.62 µM (inactive); in the assay with MDA-MB-435, 0.131 µM (active). For the same compound, the figures for the GI50 in the assay on Malme-3M, with TK-10 and in the assay with MOLT-4 were 0.463 µM (active), > 24.2 µM (inactive) and 0.486 µM (active), respectively.

`CN(C)N1C(=O)S/C(=C\c2ccc([N+](=O)[O-])cc2)C1=O`: the GI50 with SF-268 is > 100 µM (inactive); in the assay with SN12C, > 100 µM (inactive); in the assay with MDA-N, > 100 µM (inactive); in the assay with A549 it was > 100 µM (inactive); in the assay on T47D, 65.5 µM (inactive); with SK-MEL-28, > 100 µM (inactive). In addition, the GI50 in the assay with EKVX, with OVCAR-3, in the assay on M14, with SF-539, with DU-145 and in the assay on MDA-MB-435 was > 100 µM (inactive) in each case. The GI50 in the assay on Malme-3M, in the assay with TK-10 and in the assay with MOLT-4 was > 100 µM (inactive) each time.

For the compound `C=C[C@@](C)(/C=C/c1ccc(O)cc1)CCC=C(C)C` [BAKUCHIOL], the GI50 is 17.7 µM (inactive) in the assay on UO-31; 18.5 µM (inactive) in the assay with SN12C; 17.3 µM (inactive) in the assay with MDA-N; 17.8 µM (inactive) in the assay with A549; 14 µM (inactive) in the assay with T47D; 20 µM (inactive) in the assay with SK-MEL-28. In addition, the GI50 was 18.3 µM (inactive) with OVCAR-3; 19.1 µM (inactive) with M14; 13.2 µM (inactive) with DU-145; 18.2 µM (inactive) with MDA-MB-435; 17.1 µM (inactive) with TK-10; 13.1 µM (inactive) in the assay with MOLT-4.

Consider `CCOP(=O)(OCC)C(Nc1ccc(C(=O)O)cc1)c1ccc(C(Nc2ccc(C(=O)O)cc2)P(=O)(OCC)OCC)cc1` (stereo unspecified), for which the GI50 with SF-268, in the assay on UO-31, in the assay with A549, in the assay on T47D, in the assay on SK-MEL-28 and with EKVX was > 100 µM (inactive) throughout. In addition, the GI50 in the assay with OVCAR-3, in the assay with BT-549, in the assay on M14, with DU-145, with MDA-MB-435 and in the assay with Malme-3M was > 100 µM (inactive) throughout. Also, the GI50 in the assay with TK-10 and with MOLT-4 was > 100 µM (inactive) each time.

For `CCOC(=O)c1sc2nc(SC)nc3c2c1NC(=O)CN3c1cccc(F)c1`, the GI50 in the assay on SF-268 is 12.4 µM (inactive); in the assay on UO-31, 15.5 µM (inactive); in the assay with SN12C it was 17.2 µM (inactive); in the assay with MDA-N, 29.8 µM (inactive); with A549, 14 µM (inactive); with SK-MEL-28, 0.138 µM (active). For the same compound, the GI50 in the assay on EKVX was 46 µM (inactive); in the assay with OVCAR-3, 19.7 µM (inactive); with BT-549 it was 7.29 µM (inactive); with M14, 20.5 µM (inactive); in the assay on SF-539 it was 0.735 µM (active); in the assay on DU-145, 26.7 µM (inactive). For the same compound, the GI50 in the assay with MDA-MB-435 is 27.5 µM (inactive); in the assay with Malme-3M, 30.3 µM (inactive); with TK-10 it was 28.4 µM (inactive); in the assay on MOLT-4, 30 µM (inactive).

In the case of `CCOC(=O)CNC(=O)C(CSCc1ccc(Br)cc1)NC(=O)CCC(N)C(=O)OCC` (stereo unspecified), the GI50 with SF-268, in the assay with UO-31, with SN12C, in the assay with MDA-N, in the assay on A549 and in the assay with SK-MEL-28 was > 50 µM (inactive) each time. Also, the GI50 with EKVX, in the assay with OVCAR-3, with BT-549, with M14, with SF-539 and in the assay with DU-145 was > 50 µM (inactive) throughout. Moreover, the GI50 in the assay with MDA-MB-435 and with MOLT-4 was > 50 µM (inactive) each time.

Turning to `COC(=O)[C@H](Cc1ccccc1)NP(=O)(O)OCC1C=CC(n2cc(C)c(=O)[nH]c2=O)O1` (stereo partly specified), the GI50 in the assay on SF-268, in the assay with UO-31, with SN12C, in the assay on A549, with T47D and in the assay on EKVX was > 100 µM (inactive) each time. Also, the GI50 in the assay on OVCAR-3, in the assay on BT-549, with M14, in the assay on DU-145, in the assay with MDA-MB-435 and in the assay on Malme-3M was > 100 µM (inactive) in each case. For the same compound, the GI50 with TK-10 and with MOLT-4 was > 100 µM (inactive) each time.

For `O=c1cc(N2CCCC2)[nH]c(=O)n1-c1ccccc1`, the GI50 is > 10 µM (inactive) in the assay on SF-268; > 100 µM (inactive) in the assay on SN12C; > 100 µM (inactive) in the assay on A549; > 100 µM (inactive) with SK-MEL-28; > 100 µM (inactive) in the assay with EKVX; > 100 µM (inactive) with BT-549. Moreover, the GI50 with M14, with SF-539, in the assay with DU-145, in the assay on MDA-MB-435, in the assay with Malme-3M and with TK-10 was > 100 µM (inactive) in each case. For the same compound, the GI50 with MOLT-4 is > 100 µM (inactive).
